Results reported in patent publication US20180265515A1 (Genentech, Inc., priority 2015, published 2018).

How the values were obtained:
[1] = biological target: T1, isolated recombinant JAK1 kinase domain (Homo sapiens, UniProt P23458); assay: JAK1 enzyme assay (Caliper LabChip, Ki); assay type: biochemical; settings: recombinant JAK1 kinase domain, 25 μM ATP
T1 construct: The activity of the isolated recombinant JAK1 and JAK2 kinase domain was measured
How it was run: (§1)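 Caliper LabChip read-out: fraction of FAM-labeled JAK3-derived peptide converted to phosphopeptide by isolated JAK1/JAK2 kinase domain. Reaction 30 min, 22° C; stopped with EDTA, 50 mM final. Ki via Morrison tight-binding model, Ki=Ki,app/(1+[ATP]/Km,app).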

[2] = biological target: T2, isolated recombinant JAK2 kinase domain (Homo sapiens, UniProt O60674); assay: JAK2 enzyme assay (Caliper LabChip, Ki); assay type: biochemical; settings: 25 μM ATP
T2 construct: The activity of the isolated recombinant JAK1 and JAK2 kinase domain was measured
How it was run: as §1

[3] = tested on: JAK1-dependent STAT6 phosphorylation downstream of IL-13 stimulation in BEAS-2B human bronchial epithelial cells; assay: JAK1 pathway assay in BEAS-2B cells (IL-13 stimulated STAT6 phosphorylation, MSD); assay type: cell-based; settings: read-out: P-STAT6 BEAS2B + IL13 IC50
How it was run: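 BEAS-2B human bronchial epithelial cells, plated the day before in complete growth medium, were preincubated with compound for 1 hr at 37° C (0.2% DMSO final), then stimulated with IL-13 at its EC90 for 15 min. STAT6 phosphorylation in lysates was read by MSD; EC50 was taken as 50% inhibition versus DMSO control.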

T2 sequence (O60674 849-1124 limits assumed): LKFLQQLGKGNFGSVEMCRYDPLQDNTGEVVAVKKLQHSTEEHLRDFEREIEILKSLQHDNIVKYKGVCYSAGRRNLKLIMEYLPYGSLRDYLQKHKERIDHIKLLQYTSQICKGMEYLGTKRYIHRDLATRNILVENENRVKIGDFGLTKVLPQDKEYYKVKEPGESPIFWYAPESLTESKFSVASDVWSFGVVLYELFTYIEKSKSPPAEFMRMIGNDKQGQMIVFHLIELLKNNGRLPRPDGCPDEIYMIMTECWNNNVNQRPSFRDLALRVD
T1 sequence (P23458 875-1153 limits assumed): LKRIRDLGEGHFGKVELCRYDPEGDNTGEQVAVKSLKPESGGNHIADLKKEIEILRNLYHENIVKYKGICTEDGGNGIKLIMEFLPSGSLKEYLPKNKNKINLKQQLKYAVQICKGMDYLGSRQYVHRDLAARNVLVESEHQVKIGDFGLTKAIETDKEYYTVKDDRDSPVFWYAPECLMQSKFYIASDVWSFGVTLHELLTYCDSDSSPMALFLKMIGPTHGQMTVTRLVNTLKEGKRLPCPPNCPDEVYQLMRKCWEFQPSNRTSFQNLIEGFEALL

| Compound | Ki [1] [nM] | Ki [2] [nM] | IC50 [3] [nM] |
| --- | --- | --- | --- |
| O=C(Nc1cn(CC(=O)N2CCN(CCN3CCOCC3)CC2)nc1-c1cc(SC2CC2)ccc1OC(F)F)c1cnn2cccnc12 [Example 163, N-[3-[5-(cyclopropylsulfanyl)-2-(difluoromethoxy)phenyl]-1-(2-[4-[2-(morpholin-4-yl)ethyl]piperazin-1-yl]-2-oxoethyl)-1H-pyrazol-4-yl]pyrazolo[1,5-a]pyrimidine-3-carboxamide] | 0.43 | 0.94 | 24 |
| CSc1ccc(OC(F)F)c(-c2nn(CC(=O)N3CCC(N(C)CC4(C)OCCO4)CC3)cc2NC(=O)c2cnn3cccnc23)c1 [Example 51, N-[3-[2-(difluoromethoxy)-5-methylsulfanyl-phenyl]-1-[2-[4-[methyl-[(2-methyl-1,3-dioxolan-2-yl)methyl]amino]-1-piperidyl]-2-oxo-ethyl]pyrazol-4-yl]pyrazolo[1,5-a]pyrimidine-3-carboxamide] | 0.43 | 0.97 | 26 |
| CSc1ccc(OC(F)F)c(-c2nn(CC(=O)N3CCN(C4CCSCC4)CC3)cc2NC(=O)c2cnn3cccnc23)c1 [Example 66, N-[3-[2-(difluoromethoxy)-5-methylsulfanyl-phenyl]-1-[2-oxo-2-(4-tetrahydrothiopyran-4-ylpiperazin-1-yl)ethyl]pyrazol-4-yl]pyrazolo[1,5-a]pyrimidine-3-carboxamide] | 0.2 | 0.24 | 5 |
| CSc1ccc(OC(F)F)c(-c2nn(CC(=O)N3CCC(N4CC(C#N)C4)CC3)cc2NC(=O)c2cnn3cccnc23)c1 [Example 59, N-[1-[2-[4-(3-cyanoazetidin-1-yl)-1-piperidyl]-2-oxo-ethyl]-3-[2-(difluoromethoxy)-5-methylsulfanyl-phenyl]pyrazol-4-yl]pyrazolo[1,5-a]pyrimidine-3-carboxamide] | 0.2 | 0.34 | 15 |
| CC(C)Sc1ccc(OC(F)F)c(-c2nn(CC(=O)N3CCC(NCC(=O)N(C)C)CC3)cc2NC(=O)c2cnn3cccnc23)c1 [Example 104, N-[3-[2-(difluoromethoxy)-5-isopropylsulfanyl-phenyl]-1-[2-[4-[[2-(dimethylamino)-2-oxo-ethyl]amino]-1-piperidyl]-2-oxo-ethyl]pyrazol-4-yl]pyrazolo[1,5-a]pyrimidine-3-carboxamide] | 0.42 | 1.2 | 160 |
| CSc1ccc(OC(F)F)c(-c2nn([C@H]3CCCNC3)cc2NC(=O)c2cnn3cccnc23)c1 [Example 9, N-[3-[2-(difluoromethoxy)-5-methylsulfanyl-phenyl]-1-[(3S)-3-piperidyl]pyraxol-4-yl]pyrazolo[1,5-a]pyrimidine-3-carboxamide] | 0.44 | 0.28 | 5.2 |
| CC(C)Sc1ccc(OC(F)F)c(-c2nn(CC(=O)N3CCC(N4CCOC[C@@H]4CO)CC3)cc2NC(=O)c2cnn3cccnc23)c1 [Example 158, N-[3-[2-(difluoromethoxy)-5-isopropylsulfanyl-phenyl]-1-[2-[4-[(3S)-3-(hydroxymethyl)morpholin-4-yl]-1-piperidyl]-2-oxo-ethyl]pyrazol-4-yl]pyrazolo[1,5-a]pyrimidine-3-carboxamide] | 0.59 | 1 | 91 |
| CSc1ccc(OC(F)F)c(-c2nn(C)cc2NC(=O)c2cnn3cccnc23)c1 [Example 91, N-[3-[2-(difluoromethoxy)-5-methylsulfanyl-phenyl]-1-methyl-pyrazol-4-yl]pyrazolo[1,5-a]pyrimidine-3-carboxamide] | 0.13 | 0.071 | 3.9 |
| CSc1ccc(OC(F)F)c(-c2nn(CC(=O)N3CC4CCCNC4C3)cc2NC(=O)c2cnn3cccnc23)c1 (stereo not drawn) [Example 35, N-[1-[2-(1,2,3,4,4a,5,7,7a-octahydropyrrolo[3,4-b]pyridin-6-yl)-2-oxo-ethyl]-3-[2-(difluoromethoxy)-5-methylsulfanyl-phenyl]pyrazol-4-yl]pyrazolo[1,5-a]pyrimidine-3-carboxamide] | 0.39 | 0.4 | 19 |
| CC(C)Sc1ccc(OC(F)F)c(-c2nn(CC(=O)N3CCC(N4CCN(C5COC5)CC4)CC3)cc2NC(=O)c2cnn3cccnc23)c1 [Example 143] | 0.92 | 2.5 | 89 |
| O=C(Nc1cn(CC(=O)N2CCN(C3CCOCC3)CC2)nc1-c1cc(SC2COC2)ccc1OC(F)F)c1cnn2cccnc12 [Example 184, N-[3-[2-(difluoromethoxy)-5-(oxetan-3-ylsulfanyl)phenyl]-1-[2-oxo-2-(4-tetrahydropyran-4-ylpiperazin-1-yl)ethyl]pyrazol-4-yl]pyrazolo[1,5-a]pyrimidine-3-carboxamide] | 0.56 | 1.1 | 74 |
| CSc1ccc(OC(F)F)c(-c2nn(CC(=O)N3CCC(N(C)[C@H]4CCOC4)CC3)cc2NC(=O)c2cnn3cccnc23)c1 [Example 49, N-[3-[2-(difluoromethoxy)-5-methylsulfanyl-phenyl]-1-[2-[4-[methyl-[(3S)-tetrahydrofuran-3-yl]amino]-1-piperidyl]-2-oxo-ethyl]pyrazol-4-yl]pyrazolo[1,5-a]pyrimidine-3-carboxamide] | 0.28 | 0.62 | 15 |
| CNC(=O)[C@@H]1CCCN1C1CCN(C(=O)Cn2cc(NC(=O)c3cnn4cccnc34)c(-c3cc(SC)ccc3OC(F)F)n2)CC1 [Example 52, N-[3-[2-(difluoromethoxy)-5-methylsulfanyl-phenyl]-1-[2-[4-[(2S)-2-(methylcarbamoyl)pyrrolidin-1-yl]-1-piperidyl]-2-oxo-ethyl]pyrazol-4-yl]pyrazolo[1,5-a]pyrimidine-3-carboxamide] | 0.29 | 0.44 | 43 |
| CSc1ccc(OC(F)F)c(-c2nn(Cc3cn(C4CCN(C5COC5)CC4)nn3)cc2NC(=O)c2cnn3cccnc23)c1 [Example 90, N-[3-[2-(difluoromethoxy)-5-methylsulfanyl-phenyl]-1-[[1-[1-(oxetan-3-yl)-4-piperidyl]triazol-4-yl]methyl]pyrazol-4-yl]pyrazolo[1,5-a]pyrimidine-3-carboxamide] | 0.32 | 0.14 | 22 |
| CC(C)(C#N)CNC1CCN(C(=O)Cn2cc(NC(=O)c3cnn4cccnc34)c(-c3cc(SC4CC4)ccc3OC(F)F)n2)CC1 [Example 167, N-[1-(2-[4-[(2-cyano-2,2-dimethylethyl)amino]piperidin-1-yl]-2-oxoethyl)-3-[5-(cyclopropylsulfanyl)-2-(difluoromethoxy)phenyl]-1H-pyrazol-4-yl]pyrazolo[1,5-a]pyrimidine-3-carboxamide] | 0.28 | 0.67 | 11 |
| CSc1ccc(OC(F)F)c(-c2nn(CCN[C@H]3CCOC3)cc2NC(=O)c2cnn3cccnc23)c1 [Example 10, N-[3-[2-(difluoromethoxy)-5-methylsulfanyl-phenyl]-1-[2-[[(3S)-tetrahydrofuran-3-yl]amino]ethyl]pyrazol-4-yl]pyrazolo[1,5-a]pyrimidine-3-carboxamide] | 0.49 | 0.27 | 8.8 |
| CSc1ccc(OC(F)F)c(-c2nn(CC(=O)N3CCN(CCN4CCOCC4)CC3)cc2NC(=O)c2cnn3cccnc23)c1 [Example 16, N-[3-[2-(difluoromethoxy)-5-methylsulfanyl-phenyl]-1-[2-[4-(2-morpholinoethyl)piperazin-1-yl]-2-oxo-ethyl]pyrazol-4-yl]pyrazolo[1,5-a]pyrimidine-3-carboxamide] | 0.39 | 0.5 | 18 |
| CS(=O)(=O)c1ccc(OC(F)F)c(-c2n[nH]cc2NC(=O)c2cnn3cccnc23)c1 [Example 4, N-[3-[2-(difluoromethoxy)-5-methylsulfonyl-phenyl]-1H-pyrazol-4-yl]pyrazolo[1,5-a]pyrimidine-3-carboxamide] | 0.45 | 0.16 | 35 |
| CSc1ccc(OC(F)F)c(-c2nn(CC(=O)N3CC=CCC3)cc2NC(=O)c2cnn3cccnc23)c1 [Example 67, N-[3-[2-(difluoromethoxy)-5-methylsulfanyl-phenyl]-1-[2-(3,6-dihydro-2H-pyridin-1-yl)-2-oxo-ethyl]pyrazol-4-yl]pyrazolo[1,5-a]pyrimidine-3-carboxamide] | 0.19 | 0.27 | 8.9 |
| CNCCn1cc(NC(=O)c2cnn3cccnc23)c(-c2cc(SC)ccc2OC(F)F)n1 [Example 28, N-[3-[2-(difluoromethoxy)-5-methylsulfanyl-phenyl]-1-[2-(methylamino)ethyl]pyrazol-4-yl]pyrazolo[1,5-a]pyrimidine-3-carboxamide] | 0.22 | 0.26 | 3 |
| CC(C)Sc1ccc(OC(F)F)c(-c2nn(CC(=O)N3CCC(C(=O)N4CCN(C)CC4)CC3)cc2NC(=O)c2cnn3cccnc23)c1 [Example 137, N-[3-[2-(difluoromethoxy)-5-isopropylsulfanyl-phenyl]-1-[2-[4-(4-methylpiperazine-1-carbonyl)-1-piperidyl]-2-oxo-ethyl]pyrazol-4-yl]pyrazolo[1,5-a]pyrimidine-3-carboxamide] | 0.5 | 1.5 | 66 |
| C[S+]([O-])c1ccc(OC(F)F)c(-c2n[nH]cc2NC(=O)c2cnn3cccnc23)c1 (stereo not drawn) [Example 3, N-[3-[2-(difluoromethoxy)-5-methylsulfinyl-phenyl]-1H-pyrazol-4-yl]pyrazolo[1,5-a]pyrimidine-3-carboxamide] | 1.7 | 0.57 | 430 |
